How the values were obtained:
[1] = molecular target: T1, recombinant soluble tissue factor and recombinant human factor VIIa (Homo sapiens, UniProt P08709); test: TF-VIIa Assay; type: biochemical; settings: chromogenic substrate, 60 min at room temperature, OD 405 nm
T1 construct: purchased American Diagnostica, Greenwich Conn; (factor VIIa); host or cells: soluble TF made in house in E. coli

[2] = molecular target: T2, human factor Xa (Homo sapiens, UniProt P00742); test: Xa Assay; type: biochemical; settings: percent inhibition of Xa activity; test concentration not given; 60 min
T2 construct: purchased Enzyme Research Laboratories, South Bend Ind
T2 sequence (P00742 235-488 limits assumed): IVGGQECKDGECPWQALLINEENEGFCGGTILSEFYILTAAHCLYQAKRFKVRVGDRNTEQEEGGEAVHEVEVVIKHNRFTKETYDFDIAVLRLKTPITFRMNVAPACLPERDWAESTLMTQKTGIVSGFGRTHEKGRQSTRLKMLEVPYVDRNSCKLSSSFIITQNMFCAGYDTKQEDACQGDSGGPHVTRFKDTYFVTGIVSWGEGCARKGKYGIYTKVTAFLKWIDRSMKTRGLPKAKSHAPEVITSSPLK
T2 sequence (P00742 41-179 limits assumed): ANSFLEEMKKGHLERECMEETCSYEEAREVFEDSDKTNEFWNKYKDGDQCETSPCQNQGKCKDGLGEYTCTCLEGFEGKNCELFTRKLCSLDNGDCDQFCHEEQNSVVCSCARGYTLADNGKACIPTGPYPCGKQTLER

T1 sequence (P08709 213-466 limits assumed): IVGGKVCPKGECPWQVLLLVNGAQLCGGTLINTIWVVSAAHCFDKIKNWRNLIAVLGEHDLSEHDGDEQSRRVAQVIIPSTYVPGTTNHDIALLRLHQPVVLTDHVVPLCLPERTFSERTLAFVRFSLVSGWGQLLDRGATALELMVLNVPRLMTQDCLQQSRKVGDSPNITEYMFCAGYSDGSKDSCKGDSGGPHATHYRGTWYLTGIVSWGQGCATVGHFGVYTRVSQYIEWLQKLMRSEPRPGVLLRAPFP
T1 sequence (P08709 61-212 limits assumed): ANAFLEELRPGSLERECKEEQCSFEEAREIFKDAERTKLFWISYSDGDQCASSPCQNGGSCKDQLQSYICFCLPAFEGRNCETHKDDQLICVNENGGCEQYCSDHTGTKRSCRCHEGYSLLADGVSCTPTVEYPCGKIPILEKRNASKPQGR
T1 sequence (P13726 33-251 partner limits assumed): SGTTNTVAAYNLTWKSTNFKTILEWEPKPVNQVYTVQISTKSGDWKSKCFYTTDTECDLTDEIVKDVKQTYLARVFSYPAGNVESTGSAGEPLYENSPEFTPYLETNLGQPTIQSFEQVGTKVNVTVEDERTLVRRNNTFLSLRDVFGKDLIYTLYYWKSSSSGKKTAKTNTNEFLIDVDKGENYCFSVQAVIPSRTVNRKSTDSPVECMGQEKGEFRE

TF-VIIA IC50 [1]: 13 µM
Factor Xa (cell printed as %, in the IC50 column) [2]: 13%
Compound: N=C(N)c1ccc(CNC(=O)CC2=C(c3ccccc3)C(=O)C=C(NCCc3ccccc3)C2=O)cc1 [Example 2]
